Target: Peptidyl-prolyl cis-trans isomerase FKBP1A (Homo sapiens, UniProt P62942)
Test: The compound was evaluated for its affinity to the binding domain of immunophilin FK506 binding protein 12

Peptidyl-prolyl cis-trans isomerase FKBP1A, sequence (P62942 whole entry, the tested form may be a part): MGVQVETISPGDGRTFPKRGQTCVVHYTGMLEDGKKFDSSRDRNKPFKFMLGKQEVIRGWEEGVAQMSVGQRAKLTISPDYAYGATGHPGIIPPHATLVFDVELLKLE

## COC[C@H]1O[C@@](O)(C(=O)C(=O)N2CCCC[C@H]2C(=O)OC/C(C)=C/[C@@H]2CC[C@@H](O)[C@H](OC)C2)[C@H](C)C[C@@H]1OC
  Kd: 10 nM
